In patent US20030060493A1, “Repinotan kit” (priority 2000, published 2003):

System: stroke or craniocerebral trauma
Assay: Clinical studies in healthy subjects and patients after stroke or craniocerebral trauma
Type: in vivo, human

O=C1c2ccccc2S(=O)(=O)N1CCCCNCC1CCc2ccccc2O1 (stereo in doubt) [repinotan, 2-[4-({[(2R)-chroman-2-yl]methyl}amino)butyl]-1,2-benzisothiazol-3(2H)-one 1,1-dioxide]
neurological and functional deficits (after 3 and 6 months respectively depending on indication): possible to improve the neurological and functional deficits
tolerability (healthy subjects and patients after a stroke or craniocerebral trauma): good tolerability
result of treatment versus placebo (patients who reached blood plasma concentrations of about 5-20 μg/l): markedly better
